The values that follow come from patent US20210113563A1, “4-(4-CYANO-2-THIOARYL)DIHYDROPYRIMIDINONES FOR TREATING CHRONIC WOUNDS” (pH Pharma Co., Ltd., priority 2015, published 2021).

Test [1] concerns HaCaT cells. In words: HaCaT modified scratch assay (Oris Cell Migration Assay) with human neutrophil elastase. The class given is cell-based. The conditions noted are these: 7.5 μg/mL hNE. The procedure: The modified scratch-wound assay is a simple, reproducible assay commonly used to measure basic cell migration parameters such as speed, persistence, and polarity. Cells are grown to confluence and a thin “wound” is introduced by scratching with a pipette tip. In the modified version, a plastic plug is placed into the tissue well while the cells adhere and grow to confluence. When the plug is pulled, a circular “wound” emerges. Cells at the wound edge polarise and migrate into the wound space. […] At the given time points, the size of the free area is measured.
Method: Oris Cell Migration Assay (collagen I coated) with HaCaT cells. Establishing a dose response curve for test compounds with and without addition of 7.5 μg/mL human neutrophil elastase (hNE).
For harvesting the cells, the medium was first extracted from the cell culture flask, then washed with PBS and 10-20 ml aspirated again. 2.5 ml (75 cm^2 flask bottom area) or 5 ml (162 cm^2) TrypLE Express were added, as well as the same amount of PBS followed by incubating the cells for 10 minutes (37° C.). The cells were transferred into a tube, centrifuged (250×g, 10 min, RT=room temperature) and resuspended in medium.
The following cell concentration was used: 7×10^5 cells/ml=7×10^4 cells/well/100 μl.
In this time, the cells adhered and grew to confluence. The compounds were then added to achieve the below indicated concentrations. The plugs were then removed.
Once all components were pipetted to the cells, one photo per well was taken including the “wound” (0 h). A Zeiss AxioObserver (5× lens, bright field, 5.5 V light exposure 2.2 ms) and the AxioVision software was used. […] 16 h later pictures were taken again.
The relative healing was calculated, i.e. the percentage of closed wound area compared to baseline at 0 h.
Wound healing %=100−(‘wound surface after x hours’*100/‘wound surface after 0 hours’)
From the calculated relative wound healing a graphic in GrapPad prism was created, and EC50 values were determined.
For evaluation of pictures the software ImageJ was used. For this, the ZVI files were exported within the AxioVision software as jpg. This jpg files were then opened by ImageJ. Using the Tools panel (Mode: 4-connected/Tolerance=5-20) the to be measured surface area was marked.

Test [2] deals with wounds of Tight Skin mice (TSK). Put plainly: Reepithelialization and visual healing of full thickness skin excision wounds in Tight Skin mice (TSK). The conditions noted are these: TSK mouse; for Wound closure (reepithelialization) in % of initial epidermal gap: d 12, CK16 staining. Type of test: in vivo. The source says:
OBJECTIVE: To evaluate wound closure/reepithelialization promoting effects of the Neutrophil Elastase Inhibitor Example 3 in a fibrosis-related model of delayed wound healing (Tight Skin Mouse, TSK). METHODS: Animals: mice, male+female, strain: B6.Cg-FBN1<Tsk>−/− (wt) and +/−(het), age: 5 weeks upon delivery, breeder: Bayer. Food (ssniff R/M-H) and water was provided ad libitum. Experimental procedure: Mice were randomized at day 0. At day 0, 3 full thickness excision wounds were induced. For that, animals were anesthetized (Rompun/Ketavet/NaCl 0.9% [1+3+16]) in […]. The lower back was shaved, then moistened with tap water. Pilca depilation cream was applied and left for 3-5 minutes to act, then wiped off. To prevent the animals from cooling down during the procedure, they were placed on warming mats. Skin was excised using 6 mm diameter round scalpels. After wake up mice were distributed to individual cages. Treatment: Day 0 to 11 twice daily per os. Example 3 was dissolved in PEG400 as a vehicle. Administration was twice daily (bid). Skin samples were harvested into formalin (3.7% in PBS) at day 12 after scarifying with isoflurane/O2/N2O anesthesia followed by dislocation of the cervical spine. After soaking in formalin (24-72 h), the samples were transferred to paraffin and then cut. Staining of cytokeratin 16 was performed using rabbit polyclonal anti-Keratin 16 (CK16, KRT16, ABIN265495), 1 mg/ml anti-CK16 antibody by IHC-Peroxidase (in a 1:100 dilution) EnVision+ System-HRP (DAB), for Rabbit Primary Antibodies (Dako #K4011).
Effects were most prominent on d7 and d9. All dosages were similarly effective, i.e. a clear dose response ratio remained to be established. […] Based on the size of the induced wounds, 6000 μm was set as 100%. The epidermal gap, i.e. the distance between the epidermal edges was measured by microscopic histometry. The width of the gap was subtracted from the initial wound. The delta represented the reepithelialized part of the wound and was expressed as reepithelialization in % of the initial wound diameter, i.e. 100% equaled complete reepithelialization or full wound closure.

For test [3], the target named is T1, human neutrophil elastase (HNE) (Homo sapiens, UniProt P08246).
T1 sequence (P08246 30-267): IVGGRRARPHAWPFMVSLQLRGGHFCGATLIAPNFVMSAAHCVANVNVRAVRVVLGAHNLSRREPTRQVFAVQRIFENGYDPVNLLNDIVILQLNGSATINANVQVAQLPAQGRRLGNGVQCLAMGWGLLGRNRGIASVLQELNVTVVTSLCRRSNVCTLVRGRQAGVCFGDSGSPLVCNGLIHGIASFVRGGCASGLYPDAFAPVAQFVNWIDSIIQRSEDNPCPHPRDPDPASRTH
Particulars: read-out: Inhibition of human neutrophil elastase (HNE) IC50; cited from earlier work.

The term IC50 denotes the midpoint of a concentration-inhibition curve.

Entries after “also recorded” stand apart in the source; their conditions may differ.

Turning to `CC1=C(C#N)[C@@H](c2ccc(C#N)cc2S(C)(=O)=O)N(S(C)(=O)=O)C(=O)N1c1cccc(C(F)(F)F)c1` [Example 3, (4 S)-4-[4-Cyano-2-(methylsulfonyl)phenyl]-6-methyl-3-(methylsulfonyl)-2-oxo-1-[3-(trifluoromethyl)phenyl]-1,2,3,4-tetrahydropyrimidine-5-carbonitrile], the “Correction of the reepithelialization-impairing effect of NE (in words)” value in test [1] is “almost entirely, potently and concentration-dependently be corrected; also recorded: potently and effectively able to block detrimental effects of NE”. For the same molecule, the half-maximal inhibitory concentration (IC50) was 57.4 nM in test [1] (Homo sapiens, 16 h) and under 0.3 nM in test [3]. In test [1] (curve fit, 16 h), the Bottom is listed as 90.41. In test [1] (curve fit, 16 h), this molecule came in with a Span of −47.65. In test [1] (curve fit, 16 h), the Top turned out to be 42.75. Moreover, the “Wound closure (reepithelialization) in % of initial epidermal gap” value in test [2] (2.5 mg/kg BW twice daily p.o.) is given as 95.8%; in test [2] (5 mg/kg BW twice daily p.o.), 93.9%; in test [2] (10 mg/kg BW twice daily p.o.) it was 99.5%; in test [2] (20 mg/kg BW twice daily p.o.) it was 100%. Also, the “Visual wound healing, wound area reduction over time (in words)” value in test [2] (2.5-20 mg/kg bid p.o., FIG. 1) is “significant visual wound healing improving effects; also recorded: induced accelerated wound healing”. Also, the “Reepithelialization vs. vehicle controls, histological (in words)” value in test [2] (d 12) was “reepithelialization was significantly further advanced”.
With `CC1=C(C#N)[C@@H](c2ccc(C#N)cc2S(C)(=O)=O)N(S(=O)(=O)C2CC2)C(=O)N1c1cccc(C(F)(F)F)c1` [Example 4, (4 S)-4-[4-Cyano-2-(methylsulfonyl)phenyl]-6-methyl-3-(cyclopropylsulfonyl)-2-oxo-1-[3-(trifluoromethyl)phenyl]-1,2,3,4-tetrahydropyrimidine-5-carbonitrile], the IC50 in test [3] is under 0.3 nM.
`CCS(=O)(=O)c1cc(C#N)ccc1[C@@H]1C(C#N)=C(C)N(c2cccc(C(F)(F)F)c2)C(=O)N1C` [Example 6, (4 S)-4-[4-Cyano-2-(ethylsulfonyl)phenyl]-3,6-dimethyl-2-oxo-1-[3-(trifluoromethyl)phenyl]-1,2,3,4-tetrahydropyrimidine-5-carbonitrile]: the IC50 in test [3] was under 0.3 nM.
